Results reported in patent US10829506B2, “Amino- or ammonium-containing sulfonic acid, phosphonic acid and carboxylic acid derivatives and their medical use” (GRI Bio, Inc., priority 2011, dated 2020).
pIC50: −log10 of the molar value. Read-outs that look alike come from different tables or passages of the source.

Experiments:
RBL-2H3 cells [1] = assay: Inhibition of mast cell degranulation (β-hexosaminidase release); format: cell-based, rat; settings: for pIC50: RBL-2H3 cells sensitized with anti-DNP IgE, triggered with DNP-HSA, 1 h preincubation
Description: Mast cells are key effector cells involved in allergic and inflammatory diseases, and the Rat Basophilic Leukemia clone 2H3 (RBL-2H3) cell line is a commonly used model of allergen dependent immune modulator release (degranulation) in mast cells. On their surface, they express the high affinity receptor for IgE (FcεRI). Upon binding of antigen-specific IgE to the receptor, cells become sensitized to the IgE specific antigen (allergen). When IgE-sensitized cells then encounter multivalent antigen, the antigen clusters IgE-FcεRI complexes and initiates a signal transduction cascade that leads to degranulation, that is, the release of inflammatory mediators, such as cytokines, eicosanoids, histamine and enzymes. The assay can be used as a screening method to identify immune-modulating compounds, in particular compounds useful in the medical management of allergic and inflammatory diseases and asthma, β-hexosaminidase was previously shown to be released with the same kinetics as histamine (Schwartz et al., J Immunology; 123:1445-1450 (1979)), thus offering a simple means to monitor degranulation. The RBL-2H3 cell line has been successfully used to identify compounds with anti-allergic activity (Choo et al. Planta Med., 69:518-522 (2003)).
Cell Culture: RBL-2H3 cells obtained from the German Collection of Microorganisms and Cell Cultures (ACC312) (Braunschweig, Germany) were maintained in 70% Minimum Essential Medium with Earle's Salts, 20% RPMI 1640 Medium, 10% FBS and 2 mM l-glutamine in 95% air/5% CO2 at 37° C. and routinely checked for mycoplasma contamination. Cells were passaged every 3-4 days; after washing cells once with 35 ml PBS cells were incubated 8 min with 5 ml 0.05% Trypsin-EDTA solution at 37° C. Cells were removed from the incubator, 15 ml culture medium was added and cells were resuspended by repeated pipetting.
Cell seeding: cells were harvested with Trypsin-EDTA as described and 50-100 μl cell suspension seeded Into Costar CellBind 24 well cluster plates (no. 3337). Plates were kept for 30 min at RT under the sterile hood before being transferred to the incubator. Cells were used within one or two days after seeding.
For sensitization, cells for immediate use were sensitized 6-12 h after plating; cells to be used the following day were sensitized 26-38 h after plating. Culture plates were removed from the incubator and checked for cell growth and contamination. The medium was discarded and cells were sensitized with anti-DNP IgE (0.4 μg/ml) in 0.4 ml culture medium overnight. Following overnight sensitization, cells were washed with 0.8 ml pre-warmed TyB and 0.38 ml test compound or vehicle control (supplemented or not with 1% FBS) were added to duplicate wells. Samples were adjusted to contain 1% vehicle for test compounds dissolved in organic solvents. Cells were incubated for 1 h at 37° C. At the end of the incubation period, cells were routinely stimulated with 20 μl DNP-HSA (2 μg/ml; final concentration 0.1 μg/ml) diluted in TyB and cells were incubated for 15 min at 37° C. Alternatively, cells were stimulated with 20 μl […] (final concentration 0.25 μM) or 20 nM […] (final concentration 0.25 μM), both in the absence or presence of 20 nM PMA (final concentration).
Plates were removed from the incubator and immediately centrifuged at 4° C. for 5 min at 250×g and transferred to an ice bath. Aliquots of supernatants, 25 μl, were transferred to 96-well plates. Remaining supernatant was aspirated from control wells and cells were lysed in […] lysis buffer for 5 min at RT on an orbital shaker at 450 rpm under non-sterile conditions. After lysis, 25 μl aliquots of lysates were transferred to 96-well plates.
MUG substrate solution, 100 μl, were added to supernatant and lysate samples and plates were incubated 30 min at 37° C. The reaction was terminated by addition of 150 μl stop solution. Fluorescence was measured at 365 nm excitation and 440 nm emission wavelengths. […]

RBL-2H3 cells [2] = assay: Maximum tolerated concentration (cytotoxicity by lactate dehydrogenase release); format: cell-based, rat
Description: A commercially available cytotoxicity test was used (Promega Cytotox-One cat. #67891).
The safety index (SI) of a test compound Is the ratio between the maximum tolerated concentration and the 1C50 and is used as a measure of the relative safety of the test compound.

[3] = Rattus norvegicus, 25 μM, RBL-2H3 cells
[4] = highest concentration not causing cytotoxicity, LDH release
[5] = ratio between maximum tolerated concentration and IC50

| Compound | MTC (maximum tolerated concentration) (RBL-2H3 cells [2]; [4]) [µM] | pIC50 (RBL-2H3 cells [1]) | pIC50 (RBL-2H3 cells [1]; Rattus norvegicus) | SI (safety index, ratio MTC/IC50) (RBL-2H3 cells [2]; [5]) | also measured |
| --- | --- | --- | --- | --- | --- |
| CCCCCCCCCCCCCC[N@+]1(CCCS(=O)(=O)[O-])CCC[C@H](C(=O)N(CC)CC)C1 (racemic) [Compound 2c, Trans-N-Tetradecyl-N-(3-Sulfonatopropyl)-3-Diethylaminocarbonyl-Piperidinium] | 100 | – | – | – | inhibition at 25 µM (RBL-2H3 cells [1]; [3]): 50% |
| CCCCCCCCCCCCCCN(C)CCCS(=O)(=O)O [Compound 1b, 3-(N-Methyltetracylammonio)Propanesulfonate] | – | 5.37 | – | – | MTC (maximum tolerated concentration) (RBL-2H3 cells [2]): 100 µM; SI (safety index, ratio MTC/IC50) (RBL-2H3 cells [2]): 23.3 |
| CCCCCCCCCCCCCC[N+](C)(C)CCS(=O)(=O)[O-] [Compound 1d, 2-(N,N-Dimethyltetradecylammonio)Ethanesulfonate] | 100 | – | 5.41 | 25.6 | – |
| CCCCCCCCCCCCCC[N+](C)(C)CCCCS(=O)(=O)[O-] [Compound 1e, 4-(N1N-Dimethylmyristylammonio)Butanesulfonate] | – | 5.43 | – | – | MTC (maximum tolerated concentration) (RBL-2H3 cells [2]): 150 µM; SI (safety index, ratio MTC/IC50) (RBL-2H3 cells [2]): 40.5 |
| CCCCCCCCCCCCCC[N+](C)(C)CC(CC)CS(=O)(=O)[O-] (centres unmarked) [Compound 1f, 2-((Dimethyl(Tetradecyl)Ammonio)Methyl)Butane-1-Sulfonate] | 75 | – | 5.40 | 18.8 | – |
| CCCCCCCCCCCCCCCCCC[N+](C)(C)CCCS(=O)(=O)[O-] [Compound 1g, 3-(N,N-Dimethyloctadecylammonio)Propanesulfonate] | 50 | – | 5.02 | 5.3 | – |
| CCCCCCCCCCCCCCCC[N+](C)(C)CCCS(=O)(=O)[O-] [Compound 1h, 3-(N,N-dimethyIpalmitylammonio)propansulfonate] | – | 5.43 | – | – | MTC (maximum tolerated concentration) (RBL-2H3 cells [2]): 50 µM; SI (safety index, ratio MTC/IC50) (RBL-2H3 cells [2]): 13.5 |
| CCCCCCCCCCCC[N+](C)(C)CCCS(=O)(=O)[O-] [Compound 1i, 3-(N,N-dimethyldodecyl-ammonio) propanesulfonate] | – | 5.39 | – | – | MTC (maximum tolerated concentration) (RBL-2H3 cells [2]): 200 µM; SI (safety index, ratio MTC/IC50) (RBL-2H3 cells [2]): 48.8 |
| CCCCCCCCCCCCCC[N+](C)(C)CC(=O)[O-] [Compound 1j, N-Tetradecyl-N,N-Dimethylglycine] | 75 | 5.29 | – | 14.7 | – |
| CCCCCCCCCCCCCC[N+](C)(C)CCC(=O)[O-] [Compound 1k, 3-(Dimethyl(Tetradecyl)Ammonio)Propanoate] | 100 | – | 5.28 | 18.9 | – |
| CCCCCCCCCCCC[N+](C)(C)CCC(=O)[O-] [Compound 1m, 3-(Dimethyl(Dodecyl)Ammonio)Propanoate] | 100 | – | – | – | inhibition at 25 µM (RBL-2H3 cells [1]; [3]): 73% |
| CCCCCCCCCCCCCCN(C)CCCC(=O)O [Compound 1n, 4-(Methyl(Tetradecyl)Ammonio)Butanoate] | 100 | – | 5.10 | 12.5 | – |
| CCCCCCCCCCCCCC[N+](C)(C)CCCC(=O)[O-] [Compound 1o, 4-(Dimethyl(Tetradecyl)Ammonio)Butanoate] | 100 | – | – | – | inhibition at 25 µM (RBL-2H3 cells [1]; [3]): 65% |
| CCCCCCCCCCCC[N+](C)(C)CC(=O)[O-] [Compound 1p, N-Dodecyl-N,N-Dimethylglycine] | – | – | – | – | Inhibition of degranulation: % inhibition at 25 μM (RBL-2H3 cells [1]; 25 μM, RBL-2H3 cells): 50%; MTC (maximum tolerated concentration) (RBL-2H3 cells [2]): 100 µM |
| CCCCCCCCCCCCN(C)CCS(=O)(=O)O [Compound 1q, 2-(N-Methyldodecylammonio)Ethanesulfonate] | 200 | – | 5.06 | 22.7 | – |
| CCCCCCCCCCCC[N+](C)(C)CCS(=O)(=O)[O-] [Compound 1r, 2-(N,N-Dimethyldodecylammonio)Ethanesulfonate] | 200 | – | 5.38 | 47.6 | – |
| CCCCCCCCCCCCCCN(C)CCS(=O)(=O)O [Compound 1s, 2-(N-Methyltetradecylammonio)Ethanesulfonate] | 100 | – | 5.25 | 17.9 | – |
| CCCCCCCCCCCC[N+](C)(C)CCCP(=O)(O)O [Compound 1t, 3-(N,N-Dimethyldodecylammonio)Propylphosphonic Acid] | 200 | 5.21 | – | 32.8 | – |
| CCCCCCCCCCCCCCN(C)CCCP(=O)(O)O [Compound 1u, 3-(N-Methyl-N-Tetradecylamino)Propylphosphonic Acid (Betaine)] | 200 | 5.23 | – | 33.9 | – |
| CCCCCCCCCCCCCCCCN(C)CCCP(=O)(O)O [Compound 1v, 3-(N-Methyl-N—Hexadecylamino)Propylphosphonic Acid] | 200 | – | 5.06 | 22.7 | – |
| Br.CCCCCCCCCCCCCCCCN(C)CCCP(=O)(OCC)OCC [Compound 1w, 3-(N-Methyl-N—Hexadecylamino)Propylphosphonic Acid Diethylester Hydrobromide] | 200 | – | 5.16 | 29.0 | – |
| Br.CCCCCCCCCCCCCCN(C)CCCP(=O)(OCC)OCC [Compound 1x, 3-(N-Methyl-N-Tetradecylamino)Propylphosphonic Acid Diethyiester Hydrobromide] | 100 | 5.26 | – | 18.2 | – |
| CCCCCCCCCCCCCCCC[N+]1(CCCS(=O)(=O)[O-])CCCCC1 [Compound 2a, N—Hexadecyl-N-(3-Sulfonatopropyl)Piperidinium] | 50 | – | 5.35 | 11.1 | – |
| CCCCCCCCCCCCCCCC[N+]1(CCCS(=O)(=O)[O-])CCC(O)CC1 (centres unmarked) [Compound 2b, 1-Hexadecyl-1-(3-Sulfonatopropyl)-4-Hydroxypiperidinium] | 50 | – | 5.37 | 11.6 | – |
| CCCCCCCCCCCCCCCCOP(=O)([O-])OCC[N+](C)(C)C [Miltefosine, reference compound] | – | – | 5.38 | – | MTC (maximum tolerated concentration) (RBL-2H3 cells [2]; rat): 25 µM; SI (safety index, ratio MTC/IC50) (RBL-2H3 cells [2]; rat): 6.0 |
